Experimental data reported in the NIST ThermoML archive (doi:10.1021/je050169y).
Numbers after ± are expanded uncertainties.

Experiments:
[1] = 101 kPa, Liquid
[2] = xn = mol fraction of the nth substance listed; conditions: 101 kPa, Liquid

CCCCO [butan-1-ol]
[1]
Conditions | mass density [kg/m3] | speed of sound [m/s] | viscosity [mPa·s]
303.15 K | 802.31 ± 0.86 | 1227 ± 4 | 2.274 ± 0.054
313.15 K | 794.37 ± 0.89 | 1193 ± 3 | 1.783 ± 0.043

CCCCO [butan-1-ol] + ClC(Cl)Cl
[2], x2 = 0
Conditions | mass density [kg/m3] | speed of sound [m/s] | viscosity [mPa·s]
303.15 K | 802.31 ± 0.86 | 1227 ± 4 | 2.274 ± 0.054
313.15 K | 794.37 ± 0.89 | 1193 ± 3 | 1.783 ± 0.043

CCCO [propan-1-ol]
[1]
Conditions | mass density [kg/m3] | speed of sound [m/s] | viscosity [mPa·s]
303.15 K | 796.66 ± 0.8 | 1193 ± 3 | 1.719 ± 0.041
313.15 K | 788.31 ± 0.83 | 1159 ± 3 | 1.363 ± 0.033

CCCO [propan-1-ol] + ClC(Cl)Cl
[2], x2 = 0
Conditions | mass density [kg/m3] | speed of sound [m/s] | viscosity [mPa·s]
303.15 K | 796.66 ± 0.8 | 1193 ± 3 | 1.719 ± 0.041
313.15 K | 788.31 ± 0.83 | 1159 ± 3 | 1.363 ± 0.033

ClC(Cl)Cl [trichloromethane]
[1]
Conditions | mass density [kg/m3] | speed of sound [m/s] | viscosity [mPa·s]
303.15 K | 1469.21 ± 1.9 | 969 ± 3 | 0.534 ± 0.015
313.15 K | 1449.74 ± 1.9 | 934 ± 3 | 0.491 ± 0.014

ClC(Cl)Cl [trichloromethane] + CCCCO
[2]
Conditions | mass density, 303.15 K [kg/m3] | mass density, 313.15 K [kg/m3] | speed of sound, 303.15 K [m/s] | speed of sound, 313.15 K [m/s] | viscosity, 303.15 K [mPa·s] | viscosity, 313.15 K [mPa·s]
x1 = 0.0512 | – | 823.95 ± 0.93 | – | 1172 ± 3 | – | 1.67 ± 0.041
x1 = 0.0513 | 832.44 ± 0.91 | – | 1207 ± 4 | – | 2.125 ± 0.051 | –
x1 = 0.0999 | 861.44 ± 0.95 | – | 1189 ± 3 | – | 1.989 ± 0.048 | –
x1 = 0.1 | – | 852.45 ± 0.97 | – | 1154 ± 3 | – | 1.566 ± 0.039
x1 = 0.149 | 890.91 ± 1 | 881.47 ± 1 | 1170 ± 3 | 1135 ± 3 | 1.829 ± 0.044 | 1.45 ± 0.036
x1 = 0.2009 | 922.47 ± 1.1 | 912.53 ± 1.1 | 1152 ± 3 | 1116 ± 3 | 1.683 ± 0.041 | 1.341 ± 0.033
x1 = 0.2506 | 953.06 ± 1.1 | 942.58 ± 1.1 | 1134 ± 3 | 1098 ± 3 | 1.531 ± 0.037 | 1.23 ± 0.031
x1 = 0.2999 | 983.75 ± 1.1 | 972.85 ± 1.2 | 1118 ± 3 | 1081 ± 3 | 1.394 ± 0.034 | 1.136 ± 0.029
x1 = 0.3659 | 1025.5 ± 1.2 | 1013.85 ± 1.2 | 1097 ± 3 | 1060 ± 3 | 1.224 ± 0.03 | 1.018 ± 0.026
x1 = 0.407 | 1051.86 ± 1.3 | 1039.75 ± 1.3 | 1084 ± 3 | 1047 ± 3 | 1.137 ± 0.028 | 0.943 ± 0.024
x1 = 0.4515 | 1080.69 ± 1.3 | 1067.95 ± 1.3 | 1071 ± 3 | 1034 ± 3 | 1.045 ± 0.026 | 0.878 ± 0.023
x1 = 0.4997 | 1112.25 ± 1.4 | 1099 ± 1.4 | 1056 ± 3 | 1019 ± 3 | 0.96 ± 0.024 | 0.82 ± 0.021
x1 = 0.5502 | 1145.88 ± 1.4 | 1132.03 ± 1.4 | 1043 ± 3 | 1006 ± 3 | 0.877 ± 0.023 | 0.758 ± 0.02
x1 = 0.6011 | 1180.26 ± 1.5 | – | 1030 ± 3 | – | 0.82 ± 0.021 | –
x1 = 0.6012 | – | 1165.78 ± 1.5 | – | 993 ± 3 | – | 0.712 ± 0.019
x1 = 0.6527 | 1215.51 ± 1.5 | 1200.35 ± 1.5 | 1018 ± 3 | 981 ± 3 | 0.754 ± 0.02 | 0.671 ± 0.018
x1 = 0.702 | 1249.87 ± 1.6 | – | 1007 ± 3 | – | 0.709 ± 0.019 | –
x1 = 0.7021 | – | 1234 ± 1.6 | – | 970 ± 3 | – | 0.633 ± 0.017
x1 = 0.7519 | 1285.1 ± 1.6 | 1268.52 ± 1.6 | 997 ± 3 | 961 ± 3 | 0.676 ± 0.018 | 0.615 ± 0.017
x1 = 0.802 | 1320.98 ± 1.7 | – | 989 ± 3 | – | 0.636 ± 0.017 | –
x1 = 0.8021 | – | 1303.85 ± 1.7 | – | 952 ± 3 | – | 0.579 ± 0.016
x1 = 0.8517 | 1357.17 ± 1.7 | – | 981 ± 3 | – | 0.622 ± 0.017 | –
x1 = 0.8518 | – | 1339.4 ± 1.7 | – | 945 ± 3 | – | 0.572 ± 0.016
x1 = 0.9023 | 1394.7 ± 1.8 | – | 975 ± 3 | – | 0.587 ± 0.016 | –
x1 = 0.9024 | – | 1376.18 ± 1.8 | – | 939 ± 3 | – | 0.547 ± 0.015
x1 = 0.9509 | 1431.43 ± 1.8 | – | 971 ± 3 | – | 0.569 ± 0.016 | –
x1 = 0.951 | – | 1412.42 ± 1.8 | – | 936 ± 3 | – | 0.524 ± 0.015
x1 = 1 | 1469.21 ± 1.9 | 1449.74 ± 1.9 | 969 ± 3 | 934 ± 3 | 0.534 ± 0.015 | 0.491 ± 0.014
